The source of these data is patent US6635652B1, “Azaindolizinone derivatives and cerebral function improvers containing the same as the active ingredient” (Zenyaku Kogyo Kabushiki Kaisha, priority 1999, dated 2003).

Data set [1] has as its system amnesia of rats induced by scopolamine. The experiment in a line: Effects on scopolamine-induced amnesia (passive avoidance task, oral administration). It counts as in vivo. As to conditions: 60 min before retention trial, scopolamine hydrobromide 2 mg/kg i.p., passive avoidance latency, male Strague Dawley rats; for inhibition in vivo at 0.01 mg/kg / inhibition in vivo at 1 mg/kg: Rattus norvegicus, po, read-out: Inhibitory rate (%); for inhibition in vivo at 0.01 mg/kg / Inhibitory rate (%): 0.01 mg/kg p.o.; for inhibition in vivo at 1 mg/kg: 1 mg/kg p.o. The text has this: Male rats of the Strague Dawley strain at 8 weeks of age (260±2 g body weight) were used for evaluation through passive avoidance task. The apparatus of passive avoidance task comprises illuminated and dark chambers which are separated from each other by a wall with a door. Floors are constituted by grids made of stainless steel; only the grid in the dark chamber is furnished with wiring for electrification.
Effected on the first and second days of testing was preparative training; each rat was placed in the illuminated chamber and left for 3 minutes to habituate to the apparatus. On the third day of testing, the rats were individually placed in the illuminated chamber and after entering the dark chamber, the door was closed and the floor grid was electrified to deliver electric shock (100 V, 0.4 mA, a period of 0.8 sec). In order to induce amnesia, scopolamine hydrobromide (2 mg/kg) was intraperitoneally injected 20 minutes before the electric shock was delivered. Retention in memory on the electric shock was tested 24 hours later; more specifically, retention in passive avoidance trial was measured in terms of a time interval (latency) from placement of each rat in the illuminated chamber to its entry into the dark chamber. The latency over 300 seconds was recorded as 300 seconds. Respective test compounds were suspended in an aqueous solution of 1% carboxymethyl cellulose and orally administered at a dose of 0.01 or 1 mg/kg 60 minutes before the trial.
Antiamnesic effects of the test compounds were evaluated by inhibitory rate (%) which is calculated by the following formula: [formula]
wherein T stands for latency and SC stands for administration of scopolamine hydrobromide. Experimental results are shown in the following table in which, as to each of the test compounds, only the dose showing higher inhibitory rate was indicated.

Molecules are shown by their SMILES. Marks after values point to notes of the source that are not given here.

With `COc1cc2c(cc1OC)C(=O)C(CC1CCN(Cc3ccccc3)CC1)C2` (racemic) [Compound C, (R,S)-1-benzyl-4-(5,6-dimethoxy-1-indanon-2-yl)-methylpiperidine, reference compound], in data set [1], the inhibition in vivo at 0.01 mg/kg was found to be 12.5% and the inhibition in vivo at 1 mg/kg was 24.7%.

What is called melting point is the temperature, or range, at which the solid turns liquid. Regarding `CC(C)OC1=CC=CN2C1=NC(=O)C2(Cc1ccccc1)Cc1ccccc1` [Compound 1, 3,3-Dibenzyl-8-isopropoxyimidazo[1,2-a]-pyridin-2(3H)-one], the melting point lay within 247 to 248 °C. Also, the inhibition in vivo at 1 mg/kg in data set [1] turned out to be 50.4%.

Take `COC1=CC=CN2C1=NC(=O)C2(Cc1ccccc1)Cc1ccccc1` [Compound 2, 3,3-Dibenzyl-8-methoxyimidazo[1,2-a]pyridin-2(3H)-one]: the melting point was in the range of 274 to 275 °C. For the same compound, the inhibition in vivo at 1 mg/kg in data set [1] came out at 53%.

For `O=C1N=C2C(OCC3CC3)=CC=CN2C1(Cc1ccccc1)Cc1ccccc1` [Compound 3, 3,3-Dibenzyl-8-cyclopropylmethyloxyimidazo[1,2-a]-pyridin-2(3H)-one], the melting point fell in the range of 236 to 237 °C. For the same compound, the inhibition in vivo at 1 mg/kg in data set [1] amounted to 47.4%.

In the case of `O=C1N=C2C=CC(Cl)=CN2C1(Cc1ccccc1)Cc1ccccc1` [Compound 4, 3,3-Dibenzyl-6-chloroimidazo[1,2-a]pyridin-2(3H)-one], the melting point was 246 to 248 °C. Moreover, the inhibition in vivo at 1 mg/kg in data set [1] was determined as 58.5%.

For the compound `C=CCOC1=CC=CN2C1=NC(=O)C2(Cc1ccccc1)Cc1ccccc1` [Compound 5, 8-Allyloxy-3,3-dibenzylimidazo[1,2-a]pyridin-2(3H)-one], the melting point was in the range of 214 to 215 °C. Moreover, the inhibition in vivo at 1 mg/kg in data set [1] stood at 34.8%.

In the case of `CC(c1ccccc1)C1(C(C)c2ccccc2)C(=O)N=C2C(OCc3ccccc3)=CC=CN21` (stereo not drawn) [Compound 7, 8-Benzyloxy-3,3-bis(1-phenylethyl)imidazo[1,2-a]-pyridin-2(3H)-one], the melting point fell in the range of 234 to 235 °C.

`O=C1N=C2C(Cl)=CC(Cl)=CN2C1(Cc1ccccc1)Cc1ccccc1` [Compound 12, 3,3-Dibenzyl-6,8-dichloroimidazo[1,2-a]pyridin-2(3H)-one] showed a melting point of 260 to 261 °C.

As to `CC1=CC=CN2C1=NC(=O)C2(Cc1ccncc1)Cc1ccncc1` [Compound 15, 8-Methyl-3,3-bis(4-pyridylmethyl)imidazo[1,2-a]-pyridin-2(3H)-one], the melting point lay in the range of 228 to 230 °C.

For the compound `O=C1N=C2C=CC=CN2C1(Cc1ccc(-c2ccccc2)cc1)Cc1ccc(-c2ccccc2)cc1` [Compound 20, 3,3-bis(4-Biphenylmethyl)imidazo[1,2-a]pyridin-2(3H)-one], the “Inhibitory rate (%)” value in data set [1] was 30.2* %.

Turning to `O=C1N=C2C=CC=CN2C12Cc1ccccc1C2` [Compound 24, Spiro[imidazo[1,2-a]pyridin-2(3H)-one-3,2′-indan]], the “Inhibitory rate (%)” value in data set [1] was 56.8** %.

`C=CCC1(CC=C)C(=O)N=C2C(OCc3ccccc3)=CC=CN21` [Compound 25, 3,3-Diallyl-8-benzyloxyimidazo[1,2-a]pyridin-2(3H)-one] came in with a melting point of 160 to 162 °C.

Turning to `O=C1N=C2C=CC=CN2C12Cc1cccc3cccc(c13)C2` [Compound 27, Spiro[imidazo[1,2-a]pyridin-2(3H)-one-3,2′-[2,3]dihydrophenalene]], the “Inhibitory rate (%)” value in data set [1] is 60.7* %.

Consider `CC1(C)C(=O)N=C2C=CC=CN21` [Compound 33, 3,3-Dimethylimidazo[1,2-a]pyridin-2(3H)-one], for which the melting point is 200 to 202 °C.

Take `O=C1N(c2ccccc2)c2ccccc2C1(Cc1ccncc1)Cc1ccncc1` [Compound A, 3,3-bis(4-pyridylmethyl)-1-phenylindolin-2-one, reference compound]: in data set [1], the inhibition in vivo at 0.01 mg/kg amounted to 8.8% and the inhibition in vivo at 1 mg/kg is 20.9%.

With `Nc1c2c(nc3ccccc13)CCCC2` [Compound B, 9-amino-1,2,3,4-tetrahydro-acridine, reference compound], in data set [1], the inhibition in vivo at 0.01 mg/kg is 24.1% and the inhibition in vivo at 1 mg/kg was 54.9%.
